Results as given in patent US12187742B2 (XRAD Therapeutics, Inc., priority 2018, dated 2025).
Where a name gives a salt, the structure may show the parent alone.

Experiments:
ATM = ATM (Homo sapiens (Human), UniProt Q13315); experiment: ATM in Cell Western Assay (pKAP1 in etoposide-treated MCF-7 cells); type: cell-based
Summary of the method: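 After paraformaldehyde fixation and Triton X-100 permeabilization, immunostained plates were read by infrared scanning (ODYSSEY CLx). Compound was given as 10 doses, 3-fold dilutions from a 1 μM final top concentration.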

DNA-PK = DNA-PK (Homo sapiens (Human), UniProt P78527); experiment: DNA-PK Enzyme-Linked Immunosorbent Assay (phosphorylation of GST-p53 (1-101) peptide); type: biochemical; conditions: ELISA
Summary of the method: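 Inhibition measured by 450 nm absorbance after HRP/TMB detection of phospho-Ser15 on immobilized GST-p53 (1-101). The kinase reaction used 0.1 μg/mL DNA-PK and 20 μM ATP, 1 h at 25 °C. Ten 3-fold compound dilutions, top final concentration 100 nM.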

[1] = MCF-7 cells, etoposide 100 μM, 1 hr, pKAP1 readout
[2] = pKAP1 in etoposide-treated MCF-7 cells

Sequence of ATM (Q13315 whole entry): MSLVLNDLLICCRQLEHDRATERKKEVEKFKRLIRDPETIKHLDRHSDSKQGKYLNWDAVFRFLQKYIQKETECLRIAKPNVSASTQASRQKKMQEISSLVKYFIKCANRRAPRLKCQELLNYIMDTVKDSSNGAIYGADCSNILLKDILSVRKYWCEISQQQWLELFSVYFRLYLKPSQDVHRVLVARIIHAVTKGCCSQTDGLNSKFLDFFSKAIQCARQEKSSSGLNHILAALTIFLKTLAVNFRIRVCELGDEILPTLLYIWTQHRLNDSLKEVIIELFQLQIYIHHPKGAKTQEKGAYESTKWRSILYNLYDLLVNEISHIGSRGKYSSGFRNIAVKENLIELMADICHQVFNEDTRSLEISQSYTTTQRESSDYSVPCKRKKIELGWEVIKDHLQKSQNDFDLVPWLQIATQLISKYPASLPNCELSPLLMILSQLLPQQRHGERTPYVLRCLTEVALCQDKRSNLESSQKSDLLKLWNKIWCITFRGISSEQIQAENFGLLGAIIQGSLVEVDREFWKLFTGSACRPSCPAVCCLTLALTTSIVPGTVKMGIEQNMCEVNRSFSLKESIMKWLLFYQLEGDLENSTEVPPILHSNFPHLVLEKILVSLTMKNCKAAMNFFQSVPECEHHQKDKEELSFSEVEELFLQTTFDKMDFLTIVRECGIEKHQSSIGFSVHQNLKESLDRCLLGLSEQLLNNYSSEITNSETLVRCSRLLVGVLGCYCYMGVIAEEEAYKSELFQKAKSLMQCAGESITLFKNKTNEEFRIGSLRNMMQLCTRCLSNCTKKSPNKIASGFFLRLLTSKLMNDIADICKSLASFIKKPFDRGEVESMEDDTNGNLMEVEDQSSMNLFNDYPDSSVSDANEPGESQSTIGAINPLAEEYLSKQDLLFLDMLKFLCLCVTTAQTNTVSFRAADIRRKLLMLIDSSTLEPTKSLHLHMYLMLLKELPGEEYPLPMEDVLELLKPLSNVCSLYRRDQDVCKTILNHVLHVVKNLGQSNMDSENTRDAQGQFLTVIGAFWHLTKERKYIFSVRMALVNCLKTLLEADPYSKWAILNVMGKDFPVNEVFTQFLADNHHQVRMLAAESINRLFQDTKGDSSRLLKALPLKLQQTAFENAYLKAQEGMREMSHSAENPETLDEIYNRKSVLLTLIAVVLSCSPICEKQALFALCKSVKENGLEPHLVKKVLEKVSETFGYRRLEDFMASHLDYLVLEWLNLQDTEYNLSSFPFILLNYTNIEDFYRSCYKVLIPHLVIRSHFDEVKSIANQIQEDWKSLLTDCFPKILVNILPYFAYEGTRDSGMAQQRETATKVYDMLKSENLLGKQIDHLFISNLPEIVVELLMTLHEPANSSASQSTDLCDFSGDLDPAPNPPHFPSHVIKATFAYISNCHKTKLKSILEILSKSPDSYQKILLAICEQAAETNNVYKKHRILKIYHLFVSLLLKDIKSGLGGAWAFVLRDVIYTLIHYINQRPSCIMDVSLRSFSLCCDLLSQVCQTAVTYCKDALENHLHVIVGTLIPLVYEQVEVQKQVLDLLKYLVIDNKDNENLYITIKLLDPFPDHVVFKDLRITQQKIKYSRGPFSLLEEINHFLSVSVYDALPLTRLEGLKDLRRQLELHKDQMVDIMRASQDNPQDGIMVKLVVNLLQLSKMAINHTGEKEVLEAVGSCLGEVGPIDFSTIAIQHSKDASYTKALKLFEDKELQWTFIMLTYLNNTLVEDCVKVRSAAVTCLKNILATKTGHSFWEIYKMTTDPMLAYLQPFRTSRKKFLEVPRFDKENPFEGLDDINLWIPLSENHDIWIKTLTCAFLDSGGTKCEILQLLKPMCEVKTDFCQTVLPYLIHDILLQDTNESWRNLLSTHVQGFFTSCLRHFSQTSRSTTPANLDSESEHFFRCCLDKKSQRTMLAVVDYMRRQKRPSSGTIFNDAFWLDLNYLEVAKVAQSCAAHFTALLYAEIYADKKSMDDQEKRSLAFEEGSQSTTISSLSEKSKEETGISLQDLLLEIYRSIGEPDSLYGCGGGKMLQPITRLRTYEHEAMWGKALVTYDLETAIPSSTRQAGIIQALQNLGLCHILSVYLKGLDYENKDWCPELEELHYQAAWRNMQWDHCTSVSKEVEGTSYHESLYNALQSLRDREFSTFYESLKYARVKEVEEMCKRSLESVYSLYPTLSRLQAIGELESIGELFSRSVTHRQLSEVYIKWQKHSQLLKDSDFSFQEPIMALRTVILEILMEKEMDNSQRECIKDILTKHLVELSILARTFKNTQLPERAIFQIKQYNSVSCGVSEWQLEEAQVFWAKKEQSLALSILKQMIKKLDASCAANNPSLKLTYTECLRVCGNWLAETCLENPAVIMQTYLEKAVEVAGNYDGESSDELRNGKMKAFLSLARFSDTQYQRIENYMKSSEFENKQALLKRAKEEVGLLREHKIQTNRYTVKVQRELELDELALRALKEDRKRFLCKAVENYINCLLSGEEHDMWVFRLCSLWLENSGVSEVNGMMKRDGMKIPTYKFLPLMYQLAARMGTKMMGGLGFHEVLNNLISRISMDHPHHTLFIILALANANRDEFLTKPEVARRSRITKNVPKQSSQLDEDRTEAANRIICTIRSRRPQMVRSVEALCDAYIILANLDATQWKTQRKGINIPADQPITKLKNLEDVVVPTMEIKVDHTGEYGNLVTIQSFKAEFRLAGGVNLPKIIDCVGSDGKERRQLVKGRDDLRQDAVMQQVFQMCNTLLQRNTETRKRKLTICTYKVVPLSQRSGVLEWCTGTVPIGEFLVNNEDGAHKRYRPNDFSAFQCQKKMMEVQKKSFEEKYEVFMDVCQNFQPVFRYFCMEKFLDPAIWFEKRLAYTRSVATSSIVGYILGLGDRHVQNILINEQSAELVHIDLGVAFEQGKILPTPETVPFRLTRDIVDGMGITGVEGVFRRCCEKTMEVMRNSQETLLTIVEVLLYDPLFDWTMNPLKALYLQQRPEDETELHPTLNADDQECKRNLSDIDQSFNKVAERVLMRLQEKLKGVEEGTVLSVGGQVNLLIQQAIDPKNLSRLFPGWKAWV

| SMILES | IC50 (ATM; [1]) [nM] | IC50 (DNA-PK; ATP 20 μM) [nM] | IC50 (ATM; [2]) [nM] | IC50 (DNA-PK; 20 μM ATP) [nM] |
| --- | --- | --- | --- | --- |
| CN(C)CCCOc1ncc(-c2ccc3ncc4c(c3c2)CC2(CCC2)C(=O)N4C)cc1NS(=O)(=O)c1ccccc1 [Example 73, N-(2-(3-(Dimethylamino)propoxy)-5-(4-methyl-3-oxo-3,4-dihydro-1H-spiro[benzo[f][1,7]naphthyridine-2,1′-cyclobutan]-9-yl)pyridin-3-yl)benzenesulfonamide] | 1 to 100 | 1 to 100 | – | – |
| CN1CCN(S(=O)(=O)Nc2cc(-c3ccc4ncc5c(c4c3)C3(CCC3)C(=O)N5C)cnc2OCCCN2CCCCC2)CC1 [Example 200] | 0.5 to 1 | < 0.5 | – | – |
| CN(C)CCCOc1ccc(-c2ccc3ncc4c(c3c2)C2(CC2)C(=O)N4C)cn1 [Example 1, 8′-(6-(3-(Dimethylamino)propoxy)pyridin-3-yl)-3′-methylspiro [cyclopropane-1,1′-pyrrolo[2,3-c]quinolin]-2′(3′-H)-one] | 1 to 100 | 1 to 100 | – | – |
| COc1ccc([C@H]2C[C@]3(C2)C(=O)N(C)c2cnc4cc(F)c(-c5cnc(OCCNC(C)C)c(NS(C)(=O)=O)c5)cc4c23)cn1 [Example 430] | – | – | 1 to 100 | 1 to 100 |
| CN(C)CCCOc1ncc(-c2ccc3ncc4c(c3c2)C2(CC2)C(=O)N4C)cc1NS(C)(=O)=O [Example 64, N-(2-(3-(Dimethylamino)propoxy)-5-(3′-methyl-2′-oxo-2′,3′-dihydrospiro[cyclopropane-1,1′-pyrrolo[2,3-c]quinolin]-8′-yl)pyridin-3-yl) methanesulfonamide] | 1 to 100 | < 0.5 | – | – |
| CCS(=O)(=O)Nc1cc(-c2ccc3ncc4c(c3c2)C2(CC2)C(=O)N4C)cnc1OCCCN(C)C [Example 61, N-(2-(3-(Dimethylamino)propoxy)-5-(3′-methyl-2′-oxo-2′,3′-dihydrospiro [cyclopropane-1,1′-pyrrolo[2,3-c]quinolin]-8′-yl)pyridin-3-ylethanesulfonamide hydrochloride] | 1 to 100 | 1 to 100 | – | – |
| CN(C)CCCOc1ncc(-c2ccc3ncc4c(c3c2)C2(CCC2)C(=O)N4C)cc1NS(=O)(=O)c1cc(Cl)cc(Cl)c1 [Example 157, 3,5-Dichloro-N-(2-(3-(dimethylamino)propoxy)-5-(3′-methyl-2′-oxo-2′,3′-dihydrospiro [cyclobutane-1,1′-pyrrolo[2,3-c]quinolin]-8′-yl)pyridin-3-yl) benzenesulfonamide hydrochloride] | 1 to 100 | 1 to 100 | – | – |
| CN(C)CCCOc1ncc(-c2ccc3ncc4c(c3c2)C2(CCC2)C(=O)N4)cc1NS(C)(=O)=O [Example 237, N-(2-(3-(Dimethylamino)propoxy)-5-(2′-oxo-2′,3′-dihydrospiro [cyclobutane-1,1′-pyrrolo[2,3-c]quinolin]-8′-yl)pyridin-3-yl)methanesulfonamide] | 1 to 100 | 1 to 100 | – | – |
| CN1C(=O)C2(CCC2)c2c1cnc1ccc(-c3cnc(OCCCN4CCC(F)C4)c(NS(C)(=O)=O)c3)cc21 (centres unmarked) [Example 279, N-(2-(3-(3-Fluoropyrrolidin-1-yl)propoxy)-5-(3′-methyl-2′-oxo-2′,3′-dihydrospiro[cyclobutane-1,1′-pyrrolo[2,3-c]quinolin]-8′-yl)pyridin-3-yl)methanesulfonamide] | 1 to 100 | 0.5 to 1 | – | – |
| CN(C)CCCOc1ncc(-c2ccc3ncc4c(c3c2)C2(CCC2)C(=O)N4C)cc1NS(=O)(=O)c1ccccc1 [Example 5, N-(2-(3-(Dimethylamino)propoxy)-5-(3′-methyl-2′-oxo-2′,3′-dihydrospiro [cyclobutane-1,1′-pyrrolo [2,3-c]quinolin]-8′-yl)pyridin-3-yl)benzenesulfonamide] | 1 to 100 | < 0.5 | – | – |
| CN(C)CCCOc1ccc(-c2ccc3ncc4c(c3c2)C2(CC2)C(=O)N4C)cc1NS(=O)(=O)c1cccc(F)c1 [Example 90] | 0.5 to 1 | 1 to 100 | – | – |
| CN(C)CCCOc1ncc(-c2ccc3ncc4c(c3c2)C2(CCC2)C(=O)N4C)cc1NS(=O)(=O)c1ccc(C(F)(F)F)cc1 [Example 186, N-(2-(3-(Dimethylamino)propoxy)-5-(3′-methyl-2′-oxo-2′,3′-dihydrospiro[cyclobutane-1,1′-pyrrolo[2,3-c]quinolin]-8′-yl)pyridin-3-yl)-4-(trifluoromethyl)benzenesulfonamide hydrochloride] | 1 to 100 | 1 to 100 | – | – |
| CN1C(=O)C2(CCC2)c2c1cnc1ccc(-c3cnc(OCCCN4CCC(F)CC4)c(NS(C)(=O)=O)c3)cc21 [Example 286, N-(2-(3-(4-Fluoropiperidin-1-yl)propoxy)-5-(3′-methyl-2′-oxo-2′,3′-dihydrospiro[cyclobutane-1,1′-pyrrolo[2,3-c]quinolin]-8′-yl)pyridin-3-yl)methanesulfonamide] | 1 to 100 | < 0.5 | – | – |
| CN1C(=O)C2(CCC2)c2c1cnc1ccc(-c3cnc(OCCCN4CCCC4)c(NS(C)(=O)=O)c3)cc21 [Example 236, N-(5-(3′-Methyl-2′-oxo-2′,3′-dihydrospiro[cyclobutane-1,1′-pyrrolo[2,3-c]quinolin]-8′-yl)-2-(3-(pyrrolidin-1-yl)propoxy)pyridin-3-yl)methanesulfonamide] | 1 to 100 | 0.5 to 1 | – | – |
| CN(C)CCCOc1ncc(-c2ccc3ncc4c(c3c2)C2(CC2)C(=O)N4C)cc1NS(=O)(=O)c1cccc(C(F)(F)F)c1 [Example 106, N-(2-(3-(Dimethylamino)propoxy)-5-(3′-methyl-2′-oxo-2′,3′-dihydrospiro [cyclopropane-1,1′-pyrrolo[2,3-c]quinolin]-8′-yl)pyridin-3-yl)-3-(trifluoromethyl)benzenesulfonamide] | 1 to 100 | < 0.5 | – | – |

Continued, values first:

| IC50 (ATM; [1]) [nM] | IC50 (DNA-PK; ATP 20 μM) [nM] | IC50 (ATM; [2]) [nM] | IC50 (DNA-PK; 20 μM ATP) [nM] | SMILES |
| --- | --- | --- | --- | --- |
| 1 to 100 | 1 to 100 | – | – | CN(C)CCCOc1ncc(-c2cc3c4c(cnc3cc2F)N(C)C(=O)C42CCC2)cc1NS(C)(=O)=O [Example 291, N-(2-(3-(Dimethylamino)propoxy)-5-(7′-fluoro-3′-methyl-2′-oxo-2′,3′-dihydrospiro [cyclobutane-1,1′-pyrrolo[2,3-c]quinolin]-8′-yl)pyridin-3-yl)methanesulfonamide hydrochloride] |
| – | – | 1 to 100 | 1 to 100 | CO[C@H]1C[C@@]2(C1)C(=O)N(C)c1cnc3cc(F)c(-c4cnc(N5CCC(N6CCCCC6)CC5)c(NS(C)(=O)=O)c4)cc3c12 [Example 392] |
| 1 to 100 | 1 to 100 | – | – | Cc1ccc(S(=O)(=O)Nc2cc(-c3cc4c5c(cnc4cc3F)N(C)C(=O)C53CCC3)cnc2OCCCN2CCCCC2)cn1 [Example 217, N-(5-(7′-Fluoro-3′-methyl-2′-oxo-2′,3′-dihydrospiro[cyclobulane-1,1′-pyrrolo[2,3-c]quinolin]-8′-yl)-2-(3-(piperidin-1-yl)propoxy)pyridin-3-yl)-6-methylpyridine-3-sulfonamide hydrochloride] |
| – | – | > 100 | 1 to 100 | CC(C)NCCOc1ncc(-c2cc3c(cc2F)ncc2c3[C@]3(C[C@@H](c4ccccc4F)C3)C(=O)N2C)cc1NS(C)(=O)=O [Example 427, trans-N-(5-(7′-Fluoro-3-(2-fluorophenyl)-3′-methyl-2′-oxo-2′,3′-dihydrospiro[cyclobutane-1,1′-pyrrolo[2,3-c]quinolin]-8′-yl)-2-(2-(isopropylamino)ethoxy)pyridin-3-yl)methanesulfonamide] |
| – | – | 1 to 100 | 1 to 100 | COc1cccc([C@H]2C[C@@]3(C2)C(=O)N(C)c2cnc4cc(F)c(-c5cnc(OCCNC(C)C)c(NS(C)(=O)=O)c5)cc4c23)n1 [Example 429, trans-N-(5-(7′-Fluor-3-(6-methoxypyridin-2-yl)-3′-methyl-2′-oxo-2′,3′-dihydrospiro[cyclobutane-1,1′-pyrrolo[2,3-c]quinolin]-8′-yl)-2-(2-(isopropylamino)ethoxy)pyridin-3-yl)methanesulfonamide] |
| – | – | 1 to 100 | 1 to 100 | CC(C)N1CC2(C1)C(=O)N(C)c1cnc3cc(F)c(-c4cnc(N5CCC(N6CCCCC6)CC5)c(NS(C)(=O)=O)c4)cc3c12 [Example 486] |
| – | – | 1 to 100 | 1 to 100 | CC(C)NCCOc1ncc(-c2cc3c(cc2F)ncc2c3[C@]3(C[C@H](c4cccc(F)c4)C3)C(=O)N2C)cc1NS(C)(=O)=O [Example 424, cis-N-(5-(7′-Fluoro-3-(3-fluorophenyl)-3′-methyl-2′-oxo-2′,3′-dihydrospiro[cyclobutane-1,1′-pyrrolo[2,3-c]quinolin]-8′-yl)-2-(2-(isopropylamino)ethoxy)pyridin-3-yl)methanesulfonamide] |
| – | – | 1 to 100 | 1 to 100 | CO[C@H]1C[C@@]2(C1)C(=O)N(C)c1cnc3cc(F)c(-c4cnc(OCCNC(C)C)c(NS(=O)(=O)N(C)C)c4)cc3c12 [Example 390] |
| – | – | 1 to 100 | < 0.5 | CC(C)NCCOc1ncc(-c2cc3c4c(cnc3cc2F)N(C)C(=O)C42CC(C)(C)C2)cc1NS(C)(=O)=O [Example 446, N-(5-(7′-Fluoro-3,3,3′-trimethyl-2′-oxo-2′,3′-dihydrospiro[cyclobutane-1,1′-pyrrolo[2,3-c]quinolin]-8′-yl)-2-(2-(isopropylamino)ethoxy)pyridin-3-yl)methanesulfonamide] |
| – | – | 1 to 100 | 1 to 100 | CC(C)NCCOc1ncc(-c2cc3c(cc2F)ncc2c3[C@]3(C[C@@H](Nc4ccccc4)C3)C(=O)N2C)cc1NS(C)(=O)=O [Example 460, trans-N-(5-(7′-Fluoro-3′-methyl-2′-oxo-3-(phenylamino)-2′,3′-dihydrospiro[cyclobutane-1,1′-pyrrolo[2,3-c]quinolin]-8′-yl)-2-(2-(isopropylamino)ethoxy)pyridin-3-yl)methanesulfonamide hydrochloride] |
